Reference: patent EP0923292B1, “IMPROVED METHOD FOR SYSTEMIC ADMINISTRATION OF 2,4-DIENOIC ACID-TYPE INSECTICIDES TO TERRESTRIAL MAMMALS” (priority 1996, dated 1998)
Like-named read-outs stand apart in the source and are kept apart here.

Assays:
C. felis = details: supplier's technical literature; cited from earlier work
[1] = remaining for at least 14 days after the administration of a single dose of 10 mg/kg; supplier's technical literature; cited from earlier work
adult cat fleas = experiment: Flea ovicidal activity in vitro: artificial feeding system with treated beef blood (Examples 4 and 6); design: species or system C. felis; details: Ctenocephalides felis, read-out: Percent Inhibition of Flea Egg Hatching; for inhibition at 0.5 ppm: 0.5 ppm in beef blood; for inhibition at 5 ppm: 5.0 ppm in beef blood; for inhibition at 0.05 ppm: 0.05 ppm in beef blood
Excerpt: For the in vitro tests, an artificial feeding system with cages for adult cat fleas C. felis was used as described by Wade, S.E., et al., J. Med. Ent. 25(3): 186-190 (May 1988). Inside each cage were placed 100 one-week-old, unfed adult C. fells. Each cage included a container for treated blood separated from the fleas by a PARAFILM® membrane, and a compartment containing thin strips of paper to support loosely arranged clean dog hair and to provide a foothold for the fleas as they fed on the blood through the membrane.
The artificial feeding system and cages for adult cat fleas described in Example 3 were used. Beef blood was used for the feeding system, and was prepared by adding 35 mL of a 20% sodium citrate solution per liter of blood to prevent clotting. A stock solution of lufenuron was prepared by adding 50.1 mg of technical lufenuron to 4.951 g of dimethyl sulfoxide (DMSO) to yield a 1.0% solution. A 1,000 ppm solution was then prepared by diluting 1.0 mL of the 1.0% solution in 9.0 mL of DMSO, and a 100 ppm solution was prepared by diluting 1.0 mL of the 1,000 ppm solution in 9.0 mL of DMSO. Dimethyl sulfoxide itself was used as a control. To treat the blood, the various solutions (0.05 mL) were added to the citrated beef blood (100.0 mL) to yield beef blood solutions containing 5.0 ppm, 0.5 ppm, 0.05 ppm, and 0.00 (zero) ppm lufenuron. Each solution was mixed thoroughly, and 10 mL at each concentration were placed in each of five feeders in the artificial feeding system to serve as replicates. Each day fresh blood solutions identical to the originals were placed in the feeders.
Flea eggs were collected from each replicate on days 3, 5 and 7. One hundred (100) healthy appearing […] were counted under a dissecting microscope from each replicate, divided into two subsamples per replicate, and placed in 60 mm x 15 mm plastic petri dishes. The samples were incubated at 78°F and 85% relative humidity for three days, then scored for larval hatch using by visual observation through the dissecting microscope. The data from all replicates at each concentration were combined to yield the mean percent egg hatch, and the percent inhibition of egg hatch was calculated relative to the control.
Retuming to (S)-methoprene, this example presents in vitro flea ovicidal activity using beef blood, for comparison with Example 4. Procedures using beef blood were the same as those indicated in the previous examples.

C. Felis fleas = experiment: Lufenuron systemic flea ovicidal activity upon oral administration to host dogs (Example 5); assay type: in vivo, C. felis (host: dogs); details: oral single doses of 10 mg/kg at Day 0 and Day 28
Procedure: Flea eggs were collected on Days -7, 0, 1, 2, 4, 7, and weekly thereafter through Day 63. Prior to egg collection, the cages in which the dogs were housed and the collection trays were rinsed with isopropyl alcohol, and the water was turned off, feed bowls and resting pads were removed from each cage. Trays covered with a screen made of […] hardware cloth were placed under the cages, and heavy white butcher paper was placed under the hardware cloth. After an interval of 14-16 hours, the paper was swept and the debris and flea eggs thus collected were transferred to a metal pan. The debris was separated from the eggs by sieving, and the eggs were placed in half-pint plastic cartons, then transferred to 10 cm x 10 cm glass plates. Using a dissecting microscope and a fine tipped artist brush, 100 flea eggs were counted from the sweepings of each dog and separated into four replicates of 25 eggs each. The eggs were placed in a 15 mm x 60 mm disposable plastic petri dish and incubated at 79-80°F and 80% relative humidity. Seventy two hours after collection, larvae emergence was determined. Both dead and live larvae were counted to determine the ovicidal effect of the treatment.
Six random bred and purebred, clinically healthy dogs, three male and three female, ranging in weight from 5.5 kg to 17.2 kg each and in age from 5 months to 42 months, and having hair coats ranging from medium to coarse and from 1.0 to 5.0 cm in length, were used. The dogs were divided into two treatment groups of three dogs each. The dogs were all maintained on regular feeding schedules of dog food and water, and each dog in one of the two groups was administered an appropriate number of lufenuron-containing gelatin capsules to achieve a dosage of 10 mg/kg of the body weight of the dog. This dosage is identified in the supplier's technical literature as the minimum effective dosage for C. felis in dogs, and the dosage that will result in a blood concentration level of 0.05 ppm remaining for at least 14 days after the administration of a single dose. Administration was performed at Day 0 and again at Day 28.
On Days -8 (eight days before the lufenuron administration), -4, 3, 10, 17, 24, 31, 38, 45, 52, and 59, approximately 100 unfed adult C. Felis fleas were applied to each dog by standard procedures. Flea eggs were collected and larval emergence (egg hatching) was determined by the procedures of Example 2 on Days -4, 0, 1, 2, 4, 7, 14, 21, 28, 35, 42, 49, and 56.

O=C(NC(=O)c1c(F)cccc1F)Nc1cc(Cl)c(OC(F)(F)C(F)C(F)(F)F)cc1Cl (stereo not drawn) [Lufenuron]
minimum effective dosage for C. felis in dogs (C. felis): 10 mg/kg
blood concentration level [1]: 0.05 ppm
inhibition at 0.5 ppm (adult cat fleas; 72 h, day 3, low number of eggs produced in both controls and treated groups): 80.6%
inhibition at 5 ppm (adult cat fleas; 72 h, day 3): 100%
inhibition at 0.05 ppm (adult cat fleas; 120 h, day 5): 10.8%
inhibition at 0.5 ppm (adult cat fleas; 120 h, day 5): 56.5%
inhibition at 5 ppm (adult cat fleas; 120 h, day 5): 99.8%
inhibition at 0.05 ppm (adult cat fleas; 168 h, day 7): 6.9%
inhibition at 0.5 ppm (adult cat fleas; 168 h, day 7): 63.2%
inhibition at 5 ppm (adult cat fleas; 168 h, day 7): 100%
Percent Inhibition of Flea Egg Hatching (C. Felis fleas; Day 1): 39.9%
Percent Inhibition of Flea Egg Hatching (C. Felis fleas; Day 2): 70.6%
Percent Inhibition of Flea Egg Hatching (C. Felis fleas; Day 4): 54.5%
Percent Inhibition of Flea Egg Hatching (C. Felis fleas; Day 7): 54.1%
Percent Inhibition of Flea Egg Hatching (C. Felis fleas; Day 14): 52.1%
Percent Inhibition of Flea Egg Hatching (C. Felis fleas; Day 21): 10.7%
Percent Inhibition of Flea Egg Hatching (C. Felis fleas; Day 28): 0%
Percent Inhibition of Flea Egg Hatching (C. Felis fleas; Day 35): 48.6%
Percent Inhibition of Flea Egg Hatching (C. Felis fleas; Day 42): 0%
Percent Inhibition of Flea Egg Hatching (C. Felis fleas; Day 49): 72.7%
Percent Inhibition of Flea Egg Hatching (C. Felis fleas; Day 56): 20.5%
